This note sets out measurements from publication PMC3076504 (2011).

The assay deals with Isocitrate lyase (ICL) (Mycobacterium tuberculosis, UniProt P9WKK7). In words: colorimetric glyoxylate-phenylhydrazone assay at […] nm, dose response. It counts as biochemical.
Chain of Isocitrate lyase (ICL) (P9WKK7 whole entry): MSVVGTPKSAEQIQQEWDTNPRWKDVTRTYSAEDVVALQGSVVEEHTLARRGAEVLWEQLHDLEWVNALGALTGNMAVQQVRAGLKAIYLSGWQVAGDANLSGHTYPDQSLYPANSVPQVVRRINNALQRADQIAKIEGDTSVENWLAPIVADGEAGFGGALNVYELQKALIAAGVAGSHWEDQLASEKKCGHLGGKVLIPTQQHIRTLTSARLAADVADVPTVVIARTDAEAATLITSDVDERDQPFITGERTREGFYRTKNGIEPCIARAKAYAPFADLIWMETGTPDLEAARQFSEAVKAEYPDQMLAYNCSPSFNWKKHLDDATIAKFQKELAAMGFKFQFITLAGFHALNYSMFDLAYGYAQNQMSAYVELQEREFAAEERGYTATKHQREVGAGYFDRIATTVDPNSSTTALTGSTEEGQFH

In general, IC50 refers to the concentration that gives 50% inhibition. The low end stands for greater potency in that assay, the high end for weaker potency in that assay. As for `O=C(O)C(=O)O` [oxalic acid], the IC50 stood at 13 mM.
